# Earlier results, collected in patent publication US20240299384A1, “METHODS FOR TREATING PULMONARY HYPERTENSION IN PATIENTS WITH LEFT VENTRICULAR ASSIST DEVICE IMPLANTATION” (ACTELION PHARMACEUTICALS LTD, priority 2021, published 2024).
# Assays:
# [1] = cited from earlier work
# ET receptors = settings: cited from earlier work
structure (smiles),measurement,setting,value
NS(=O)(=O)Nc1ncnc(OCCOc2ncc(Br)cn2)c1-c1ccc(Br)cc1 [ACT-132577],time to peak plasma concentration,[1]; after the first dose of macitentan,about 30 hours
same,half-life,[1]; humans,approximately 48 hours
same,plasma concentrations relative to macitentan,[1]; humans,higher plasma concentrations
same,affinity for the ET receptors relative to parent compound,ET receptors,lower affinity
